{"source": "patent US5763596A", "about": "“C-4' modified adenosine kinase inhibitors” (Metabasis Therapeutics, Inc., priority 1996, dated 1998)", "system": "male SA rats", "test": "rat skin lesion model, inhibition of neutrophil accumulation induced by carrageenan", "assay_type": "in vivo", "experimental": "The dorsal skin of male SA rats was shaved and carrageenan (Type λ) or phosphate-buffered saline was injected intradermally. Three hours later, the injection sites were biopsied and weighed. Neutrophil content of the skin biopsies was measured as the quantity of myeloperoxidase (MPO) present in a tissue homogenate. The excised, weighed skin pieces were placed in 4 ml 0.5% mixed alkyl trimethylammonium bromide and homogenized at the highest speed for 15 seconds in a Polytron homogenizer (Brinkmann Instruments, Westbury, N.Y.). Lipids were extracted by adding 1 ml of dichloromethane to the homogenate, vortexing vigorously, and centrifuging at 1000 g, 5° C. for 15 min. Fifty μl of each supernatant was added in duplicate to a 96 well assay plate, along with dilutions of human myeloperoxidase standard. Potassium phosphate buffer (pH 6.1) containing 0.36 mg/ml of o-dianisidine dihydrochloride and 0.001% hydrogen peroxide was added (200 μl/well), and the absorbance at 450 nm was read after 5 min incubation at room temperature. The myeloperoxidase content of each skin piece was calculated from a standard curve constructed using least-square regression, and expressed as units of MPO/g of tissue.\nAK inhibitors were administered orally using polyethylene glycol-400 as vehicle or intraperitoneally using dimethylsulfoxide as vehicle, at indicated time before skin lesion injection. For each experiment, the average of all values from saline-induced lesions was calculated. This baseline value was then subtracted from values obtained from carrageenan-induced lesions. Percent inhibition for AK inhibitors were calculated from these baseline-corrected values.", "data": [{"smiles": "O[C@@H]1[C@H](O)CO[C@H]1n1cc(-c2ccccc2)c2c(Nc3ccc(F)cc3)ncnc21", "note": "[compound 28]", "values": [{"measurement": "% inhibition of neutrophil accumulation", "setting": "i.p., pretreatment 30 min, 3 mg/kg", "result": 18, "unit": "%"}, {"measurement": "% inhibition of neutrophil accumulation", "setting": "i.p., pretreatment 30 min, 10 mg/kg", "result": 62, "unit": "%"}, {"measurement": "% inhibition of neutrophil accumulation", "setting": "i.p., pretreatment 30 min, 30 mg/kg", "result": 79, "unit": "%"}, {"measurement": "% inhibition of neutrophil accumulation", "setting": "i.p., pretreatment 60 min, 10 mg/kg", "result": 49, "unit": "%"}, {"measurement": "% inhibition of neutrophil accumulation", "setting": "i.p., pretreatment 120 min, 10 mg/kg", "result": 60, "unit": "%"}, {"measurement": "% inhibition of neutrophil accumulation", "setting": "i.p., pretreatment 240 min, 10 mg/kg", "result": 28, "unit": "%"}, {"measurement": "% inhibition of neutrophil accumulation", "setting": "p.o., pretreatment 60 min, 10 mg/kg", "result": 28, "unit": "%"}, {"measurement": "% inhibition of neutrophil accumulation", "setting": "p.o., pretreatment 60 min, 20 mg/kg", "result": 40, "unit": "%"}, {"measurement": "% inhibition of neutrophil accumulation", "setting": "p.o., pretreatment 120 min, 20 mg/kg", "result": 84, "unit": "%"}, {"measurement": "% inhibition of neutrophil accumulation", "setting": "p.o., pretreatment 240 min, 20 mg/kg", "result": 77, "unit": "%"}, {"measurement": "% inhibition of neutrophil accumulation", "setting": "p.o., pretreatment 420 min, 20 mg/kg", "result": 20, "unit": "%"}]}]}
